From patent US20240287131A1, “PEPTIDE” (AGC Inc., priority 2021, published 2024)

System: HeLa cells
Test: Evaluation of ability to permeate cell membrane (uptake into cells, flow cytometry of Alexa Fluor 647 fluorescence)
Format: cell-based
Conditions: 1.5 μM sample solution, 37° C., 1 hour; ratio to fluorescent dye 1
Protocol: A DMSO solution of the synthesized peptide fluorescent conjugates 1, 4, and 5, and fluorescent dye 1 was diluted using a DMEM low-glucose culture solution to a concentration of 1.5 μM, the concentration of the DMSO contained was adjusted to 0.15%, and the resulting solution was used as a sample solution for a cell membrane permeability test.
HeLa cells were seeded in a 96-well cell culture plate 24 hours before peptide treatment (0.5×10^5 cells/well).
The medium of HeLa cells pre-cultured at 37° C. for 24 hours was replaced with a sample solution of the peptide fluorescent conjugates 1, 4, and 5 and the fluorescent dye 1, and the ability to permeate a cell membrane after culturing at 37° C. for 1 hour was evaluated. […] The collected cells were analyzed by flow cytometry (guava easyCyte (trademark) 8) measuring red 2 fluorescence (661/15 nm) for detecting the fluorescent dye (Alexa Fluor647) introduced into the peptide fluorescent conjugate.
Using sample solutions of the peptide fluorescent conjugates 1 and 2, TAT-Alexa, and the fluorescent dye 1 prepared in the same manner as in Test Example 1, the red 2 fluorescence (661/15 nm) was measured and analyzed by flow cytometry by the same procedure as in Test Example 1. […]

TAT-Alexa: Alexa Fluor 647 C2 Maleimide added to the terminal Cys of Cys-TAT(47-57), commercially available cell-penetrating peptide (YGRKKRRQRRR; N-terminal Cys with Alexa Fluor 647; C-terminal amide; printed: Tyr-Gly-Arg-Lys-Lys-Arg-Arg-Gln-Arg-Arg-Arg-)
average value of the fluorescence intensities of Alexa Fluor 647 in cells (MFI) relative to cells treated with the fluorescent dye 1: about double
